Test results: US20250206719A1, “ALBICIDIN DERIVATIVES, THEIR USE AND SYNTHESIS” (TECHNISCHE UNIVERSITÄT BERLIN, priority 2022, published 2025)
In brackets after ≈: the same amount, converted by molar mass. Read-outs that look alike come from different tables or passages of the source.

Key:
S. typhimurium TA100 = assay: MIC microdilution assay, S. typhimurium TA100; type: cell-based; details: Salmonella enterica, 20 h, read-out: MIC S. typhimurium TA100
Procedure: (§1) The tests were performed using the micro dilution method.
(§2) The determination of MIC values was performed according to the ninth edition of the Approved Standard M07-A9 (CLSI. Methods for Dilution Antimicrobial Susceptibility Tests for Bacteria That Grow Aerobically; Approved Standard-Ninth Edition. CLSI document M07-A9. Wayne, PA: Clinical and Laboratory Standards Institute; 2012.)
(§3) The test was carried out for different bacterial strains (E. coli DSM 1116, E. coli BW25113 [gram negative], B. subtilis DSM 10 [gram positive], M. luteus DSM 1790 [gram positive], S. typhimurium TA100 [gram negative]) and M. phlei DSM 750. 20 μL of cryo stock of each strain were inoculated in 20 mL of LB media (Lysogeny broth: 10 g/L peptone, 5 g/L yeast extract, 5 g/L NaCl) followed by incubation over night at 37° C., 200 rpm. The test inoculum was adjusted by the 0.5 McFarland Standard (OD625 from 0.08 to 0.1). Within 15 min of preparation, the adjusted inoculum suspension was diluted in MHBII media (BBL TM Mueller-Hinton Broth II, Becton, Dickinson and Company, New Jersey/USA) so that each well contained approximately 5×10^5 CFU/mL in a final volume of 100 μL. 95 μL of the inoculum were applied per well and 5 μL of the (diluted) antibiotic substance were added.
(§4) Previously the dry antibiotic compounds were dissolved in DMSO (100%) with a concentration of 2560 μg/mL and the resulting stock solutions were further diluted in DMSO (100%). 5 μL of each antibiotic dilution were applied to the microdilution tray to reach final concentrations of 64 μg/mL to 0.008 μg/mL. One row of each well plate was left as a growth control without antibiotic substances and another row of the microdilution tray was used as sterility control (only MHB II-media). The antimicrobial effect of the solvent (DMSO) was tested by adding 5 μL DMSO to several wells without antibiotics. Purity check and cell titer control were performed according to International Standard M07-A9 on Mueller-Hinton II Agar (Mueller Hinton II Broth, 15 g/L agar-agar). Both microdilution trays and agar plates were incubated at 37° C. for 20 h and subsequently analyzed visually.

E. coli BW25113 [1] = assay: MIC determination (medium: MHBII/human serum (1:1)); type: cell-based; details: Escherichia coli
Procedure: The test was carried out for bacterial strain, E. coli BW25113 (Gram-negative).
First, 20 μl of glycerol stock of the strain was inoculated in 20 mL LB followed by incubation overnight at 37° C., 200 r.p.m.
The serum was subjected to a heat shock (56° C./30 min in a water bath) before use.
The test inoculum was adjusted by the 0.5 McFarland Standard, so that each well contained approximately 5×10^5 c.f.u. mL^−1 in a final volume of 100 μL. For the adjustment of the test inoculum, MHBII medium and the human serum were used in a mixing ratio of 1:1.
For dilutions, the dry powders were dissolved in DMSO with a concentration of 2.56 mg mL-1 and serially diluted in DMSO (100%). Initial solution and serial dilutions of Ciprofloxacin were prepared in 0.1 N HCl.
Then, 95 μL of the adjusted inoculum was applied per well and 5 μl of each antibiotic dilution was applied to the microdilution tray to reach final concentrations of 8 to 0.016 μg ml^−1.
The antimicrobial effect of the solvent (DMSO or 0.1 N HCL) was tested by adding 5 μL DMSO or 0.1 N HCL to several wells.
One row of each well plate served as a growth control without antibiotic substances, and another row of the microdilution tray served as sterility control (MHB II-media).

E. coli BW25113 [2] = assay: MIC microdilution assay, E. coli BW25113; type: cell-based; details: Escherichia coli, read-out: MIC E. coli BW25113
Procedure: as §1, §2, §3, §4

E. coli DSM 1116 = assay: MIC microdilution assay, E. coli DSM 1116; type: cell-based; details: Escherichia coli, read-out: MIC E. coli DSM1116
Procedure: as §1, §2, §3, §4

Bacillus subtilis DSM10 = assay: MIC microdilution assay, B. subtilis DSM 10; type: cell-based; details: read-out: MIC B. subtilis DSM10
Procedure: as §1, §2, §3, §4

[3] = test system: Micrococcus luteus DSM1790; assay: MIC microdilution assay, M. luteus DSM 1790; type: cell-based; details: read-out: MIC M. luteus DSM 1790
Procedure: as §1, §2, §3, §4

M. phlei DSM 750 = assay: MIC microdilution assay, M. phlei DSM 750; type: cell-based, Mycobacterium phlei; details: Mycolicibacterium phlei, read-out: MIC M. phlei DSM 750
Procedure: as §1, §2, §3, §4

[4] = MHBII medium, 37° C., test range 64 to 0.008 μg/mL
[5] = E. coli BW25113, MHBII/human serum 1:1, test range 8 to 0.016 μg/ml, read-out: MIC E. coli + 50% human serum
[6] = BW25113, MHBII medium, 37° C., 20 h, test range 64 to 0.008 μg/mL
[7] = DSM1116, MHBII medium, 37° C., 20 h, test range 64 to 0.008 μg/mL
[8] = DSM10, MHBII medium, 37° C., 20 h, test range 64 to 0.008 μg/mL
[9] = DSM1790, MHBII medium, 37° C., 20 h, test range 64 to 0.008 μg/mL
[10] = DSM750, MHBII medium, 37° C., 20 h, test range 64 to 0.008 μg/mL

Structure (SMILES)	MIC (S. typhimurium TA100; [4])	MIC (E. coli BW25113 [1]; [5])	MIC (E. coli BW25113 [2]; [6])	also measured
COc1c(NC(=O)c2ccc(NC(=O)c3ccc(NC(=O)[C@H](Cc4c[nH]nn4)NC(=O)c4ccc(NC(=O)c5ccc6ncccc6c5)cc4)cn3)c(OC)c2O)ccc(C(=O)O)c1O (stereo in doubt) [Compound 2]	≤ 0.016 µg/mL	4 µg/mL	–	–
COc1c(NC(=O)c2ccc(NC(=O)c3ccc(NC(=O)[C@H](Cc4c[nH]nn4)NC(=O)c4ccc(NC(=O)c5cc6ccccc6cn5)cc4)cn3)c(OC)c2O)ccc(C(=O)O)c1O (stereo in doubt) [Compound 10]	–	–	–	MIC (E. coli BW25113 [2]; BW25113, 20 h): ≤ 0.016 µg/mL; MIC (E. coli DSM 1116; DSM1116, 20 h): ≤ 0.016 µg/mL; MIC (S. typhimurium TA100): ≤ 0.016 µg/mL; MIC (Bacillus subtilis DSM10; DSM10, 20 h): 0.063 µg/mL (≈ 0.0715 µM); MIC ([3]; DSM1790, 20 h): 0.063 µg/mL (≈ 0.0715 µM); MIC (M. phlei DSM 750; DSM750, 20 h): 1 µg/mL (≈ 1.14 µM); MIC (E. coli BW25113 [1]; BW25113, read-out: MIC E. coli + 50% human serum): 1 µg/mL
COc1c(NC(=O)c2ccc(NC(=O)c3ccc(NC(=O)[C@H](Cc4c[nH]nn4)NC(=O)c4ccc(NC(=O)c5cc(=O)c6cc(F)ccc6o5)cc4)cn3)c(OC)c2O)ccc(C(=O)O)c1O (stereo in doubt) [Compound 12]	≤ 0.016 µg/mL	8 µg/mL	–	–
COc1c(NC(=O)c2ccc(NC(=O)c3ccc(NC(=O)[C@H](Cc4c[nH]nn4)NC(=O)c4ccc(NC(=O)c5ccc6ccccc6n5)cc4)cn3)c(OC)c2O)ccc(C(=O)O)c1O (stereo in doubt) [Compound 13]	≤ 0.016 µg/mL	2 µg/mL	–	–
COc1c(NC(=O)c2ccc(NC(=O)c3ccc(NC(=O)[C@H](Cc4c[nH]nn4)NC(=O)c4ccc(NC(=O)c5cc6cc(O)ccc6[nH]5)cc4)cn3)c(OC)c2O)ccc(C(=O)O)c1O (stereo in doubt) [Compound 14]	0.125 µg/mL (≈ 0.141 µM)	≥ 8 µg/mL	0.125 µg/mL (≈ 0.141 µM)	–
COc1c(NC(=O)c2ccc(NC(=O)c3ccc(NC(=O)C(Cc4c[nH]nn4)NC(=O)c4ccc(NC(=O)/C(C)=C/c5ccc(O)cc5)cc4)cn3)c(OC)c2O)ccc(C(=O)O)c1O (centres unmarked) [3^RD GEN Alb i, reference compound]	0.016 µg/mL (≈ 0.0181 µM)	0.5 µg/mL	0.016 µg/mL (≈ 0.0181 µM)	MIC (E. coli DSM 1116; [7]): 0.016 µg/mL (≈ 0.0181 µM); MIC (Bacillus subtilis DSM10; [8]): 0.031 µg/mL (≈ 0.035 µM); MIC [3, 9]: 0.031 µg/mL (≈ 0.035 µM); MIC (M. phlei DSM 750; [10]): 0.25 µg/mL (≈ 0.282 µM)
COc1c(NC(=O)c2ccc(NC(=O)c3ccc(NC(=O)[C@H](Cc4c[nH]nn4)NC(=O)c4ccc(NC(=O)c5ccc6nc(C)ccc6c5)cc4)cn3)c(OC)c2O)ccc(C(=O)O)c1O [Compound 1]	≤ 0.016 µg/mL	0.5 µg/mL	0.016 µg/mL (≈ 0.0179 µM)	MIC (E. coli DSM 1116; [7]): 0.016 µg/mL (≈ 0.0179 µM); MIC (Bacillus subtilis DSM10; [8]): 0.063 µg/mL (≈ 0.0704 µM); MIC [3, 9]: 0.063 µg/mL (≈ 0.0704 µM); MIC (M. phlei DSM 750; [10]): 0.5 µg/mL (≈ 0.559 µM)
COc1c(NC(=O)c2ccc(NC(=O)c3ccc(NC(=O)[C@H](Cc4c[nH]nn4)NC(=O)c4ccc(NC(=O)c5cnc6ccccc6c5)cc4)cn3)c(OC)c2O)ccc(C(=O)O)c1O [Compound 3]	≤ 0.016 µg/mL	2 µg/mL	–	–
